Source: patent publication US20250236901A1, “METHOD OF DETECTING A MICROORGANISM HAVING HIPPURICASE ACTIVITY” (BIOSYNTH AG, priority 2022, published 2025)

Tests used:
Type in all cases: cell-based
[1] = system: catalase-positive samples (Campylobacter); test: Catalase control experiment: chromogenic reaction of p-hydroxybenzoic acid with 4-AAP/HRP/H2O2 in presence of cells; conditions: 1 mM 4-HBA, 0.5 mM 4-AAP, 4.5 U/mL HRP, 1 mM H2O2; OD600 0.4 to 0.5; FIG. 2B, FIG. 9
Method: In a catalase control experiment, biomass of colonies was suspended in sterile phosphate buffer (100 mM, pH 7.4) and the optical density OD was determined and then serially diluted with the same buffer to an OD600 of 0.4 to 0.5.
One hundred to 150 μL of cell suspension were mixed with 50 to 100 μL of 100 mM phosphate puffer pH 7.4 and 50 μL of the prepared mixture (5×) 4-aminoantipyrine (4-AAP, Merck 06800, 2.5 mM), peroxidase (HRP, Merck 77332, 22.5 U/mL) and 4-hydroxybenzoic acid (4-HBA, Merck H20059, 5 mM, dissolved in 100 mM phosphate puffer pH 7.4) and 5 μL of 50 mM H2O2 were added. The absorbance at 505 nm was recorded with a plate reader (SpektraMax M5, Molecular Devices) at room temperature. Final concentrations for the assay are 1 mM 4-HBA, 0.5 mM 4-AAP, 4.5 U/mL HRP and 1 mM H2O2. (FIG. 2B)
Two hundred μL of cell suspension were mixed with 20 μL of 100 mM phosphate puffer pH 7.4, 5 μL 50 mM and p-4-hydroxybenzoic acid (p-HBA, Merck H20059 dissolved in 100 mM phosphate puffer pH 7.4), 20 μL of mixture 4-aminoantipyridine (Merck 06800, 6.25 mM) and horseradish peroxidase (Merck 77332, 56.3 U/mL), followed by the addition of 5 μL of 50 mM H2O2. The absorbance at 505 nm was recorded with a plate reader (SpektraMax M5, Molecular Devices) at room temperature. Final concentrations for the assay are 1 mM p-4-HBA, 0.5 mM 4-AAP, 4.5 U/mL HRP and 1 mM H2O2. (FIG. 9)

Eschericha coli = test: Detection of hippuricase activity with 4-HHA, 4-aminoantipyrine, HRP and H2O2; conditions: Example 1; OD600 0.9; 5, 10, 20 mM 4-HHA, 70 min 37° C.; 0.5 mM 4-AAP, 4.5 U/mL HRP, 2 mM H2O2
Method: (§1) Campylobacter jejuni DSM 4688 (C. j., catalase positive), Eschericha coli (E. coli, catalase positive) and Campylobacter coli DSM 4689 (C. c., catalase positive), Streptococcus agalactiae ATCC®12386 (S. a., catalase negative) and Streptococcus pyogenes ATCC®19615 (S. p., catalase negative) were cultivated on Columbia Agar with sheep blood (Thermofischer PB5039A) at 37° C. for 48 h, both Campylobacter strains were cultivated under microaerophilic atmosphere (Oxoid, Campylgen CN0025A).
(§2) Biomass of colonies were suspended in sterile phosphate buffer (100 mM, pH 7.4) and the optical density OD was determined and set to OD600 of 0.9.
(§3) Two hundred μL of cell suspensions were mixed with 25 μL of 4-hydroxyhippuric acid (4-HHA, Bachem, 4005059) stock solution, prepared in 100 mM phosphate buffer pH adjusted to 7.4 in a microtiter plate (SpektraMax M5, Molecular Devices) and incubated for 70 minutes at 37° C. After incubation, 20 μL of a prepared mixture (12.5×) 4-aminoantipyrine (4-AAP, Merck 06800) and peroxidase (HRP, Merck 77332) and 5 μL of 100 mM H2O2 were added. The absorbance at 505 nm was recorded with a plate reader at room temperature. Final concentrations for the assay were 5 mM, 10 mM and 20 mM 4-HHA, 0.5 mM 4-AAP, 4.5 U/mL HRP and 2 mM H2O2.

[2] = system: Campylobacter coli DSM 4689; test: Detection of hippuricase activity with 4-HHA, 4-aminoantipyrine and oxidizing reagent (color / absorbance at 505 nm)
Method: as §1, §2, §3
(§4) Biomass of colonies were suspended in sterile 100 mM phosphate buffer pH 7.4 and the optical density OD600 was set to 0.9 and then serially diluted with the same buffer to an OD600 of 0.5, 0.2 and 0.1.
(§5) Two hundred μL of cell suspensions were mixed with 25 μL of 100 mM 4-hydroxyhippuric acid (4-HHA, Bachem 4005059) prepared in 100 mM phosphate buffer pH adjusted to 7.4) in a microtiter plate and incubated for 1 h at 37° C. After incubation, 20 μL of the prepared mixture (12.5×) 4-aminoantipyrine (4-AAP, Merck 06800) and peroxidase (HRP, Merck 77332), 5 μL of 100 mM H2O2 were added. The absorbance at 505 nm was recorded with a plate reader (SpektraMax M5, Molecular Devices) at room temperature. Final concentrations for the assay were 10 mM 4-HHA, 0.5 mM 4-AAP, 4.5 U/mL HRP and 2 mM H2O2.
(§6) Biomass of colonies were suspended in sterile phosphate buffer (100 mM, pH 7.4) and the optical density OD was set to 0.9 and then serially diluted with the same buffer to an OD600 of 0.5, 0.2 and 0.1.
(§7) Two hundred μL of cell suspension were mixed with 25 μL of 100 mM 4-hydroxyhippuric acid (4-HHA, Bachem 4005059, dissolved in 100 mM phosphate puffer pH 7.4) in microtiter plate and incubated for 1 h at 37° C. After incubation, 10 μL of the prepared mixture (25×) 4-aminoantipyrine (4-AAP, Merck 06800) and peroxidase (HRP, Merck 77332), 10 μL of 250 mM glucose (Merck, G8270) and 5 μL of glucose oxidase (GOD, Merck G2133) 50 U/mL were added. The absorbance at 505 nm was recorded with a plate reader. Final concentration of 4-HHA was 10 mM, 4-AAP was 0.5 mM, HRP was 4.5 U/mL, glucose was 10 mM and GOD was 1 U/mL.
Biomass of colonies were suspended, a) 0.2 mL sterile 100 mM phosphate buffer pH 7.4; b) 0.1 mL sterile water (as recommended in manual), c) 0.5 mL saline solution (as recommended in manual). To ensure a proper comparability, the optical density OD600 of all cell suspensions were set to 0.2. In method a) 25 μL of 100 mM 4-hydroxyhippuric acid (4-HHA, Bachem 4005059 prepared in 100 mM phosphate buffer pH adjusted to 7.4) was added to cell suspensions. In methods b) and c), Hippurate disks and Hippurate strips were dropped in cell suspensions as recommended in manual. […]

[3] = system: Campylobacter jejuni DSM 4688; test: as above; conditions: for time to plateau of absorbance at 505 nm: HRP/H2O2
Method: as §1, §2, §3, §4, §5, §6, §7
Biomass of colonies were suspended, a) 0.2 mL sterile 100 mM phosphate buffer pH 7.4; b) 0.1 mL sterile water (as recommended in manual), c) 0.5 mL saline solution (as recommended in manual). To ensure a proper comparability, the optical density OD600 of all cell suspensions were set to 0.2. In method a) 25 μL of 100 mM 4-hydroxyhippuric acid (4-HHA, Bachem 4005059 prepared in 100 mM phosphate buffer pH adjusted to 7.4) was added to cell suspensions. In methods b) and c), Hippurate disks and Hippurate strips were dropped in cell suspensions as recommended in manual. To ensure a proper comparability, all samples were incubated at 37° C. for 1 h.
After incubation, 10 μL of the prepared mixture (25×) 4-aminoantipyrine (4-AAP, Merck 06800) and peroxidase (HRP, Merck 77332), followed with 5 μL of 100 mM H2O2 were added in samples of method a). Final concentrations for the assay were 10 mM 4-HHA, 0.5 mM 4-AAP, 4.5 U/mL HRP and 2 mM H2O2.

[4] = system: Streptococcus pyogenes ATCC®19615; test: Detection of hippuricase activity with 4-HHA, 4-aminoantipyrine and oxidizing reagent; conditions: Example 6; OD600 0.5-0.6; 10 mM 4-HHA; HRP/H2O2, HRP/Glu/GOD or NaIO4
Method: (§8) Streptococcus agalactiae ATCC®12386 and Streptococcus pyogenes ATCC®19615 were cultivated on Columbia Agar with sheep blood (Thermofischer PB5039A) at 37° C. for 48 h.
(§9) Biomass of colonies were suspended in sterile 100 mM phosphate buffer pH 7.4 and the optical density OD600 was set to 0.5-0.6.
as §5, with “incubated for 80 min. at 37°” for “incubated for 1 h at 37°”, “06800) and horseradish peroxidase (HRP,” for “06800) and peroxidase (HRP,”, “at room temperature and endpoint of absorbance at 505 nm was evaluated (FIG. 8A). Final concentrations” for “at room temperature. Final concentrations”
(§10) Two hundred μL of cell suspension were mixed with 25 μL of 100 mM 4-hydroxyhippuric acid (4-HHA, Bachem 4005059, dissolved in 100 mM phosphate puffer pH 7.4) in microtiter plate and incubated for 1 h at 37° C. […] The absorbance at 505 nm was recorded with a plate reader and endpoint of absorbance at 505 nm was evaluated (FIG. 8B). […]

[5] = system: Streptococcus agalactiae ATCC®12386; test: as above; conditions: Example 6; OD600 0.5-0.6; 10 mM 4-HHA; HRP/H2O2, HRP/Glu/GOD or NaIO4
Method: as §8, §9
as §5, with “incubated for 80 min. at 37°” for “incubated for 1 h at 37°”, “06800) and horseradish peroxidase (HRP,” for “06800) and peroxidase (HRP,”, “at room temperature and endpoint of absorbance at 505 nm was evaluated (FIG. 8A). Final concentrations” for “at room temperature. Final concentrations”
as §10

[6] = Example 1, OD600 0.9, 5, 10, 20 mM 4-HHA, 70 min 37° C., 0.5 mM 4-AAP, 4.5 U/mL HRP, 2 mM H2O2

SMILES	time after which the chromogenic reaction stopped (absorbance at 505 nm) [1]	color of sample (Eschericha coli)	color of sample [2, 6]	color of sample ([2]; Example 2, all OD600 values 0.1 to 0.9, 10 mM 4-HHA 1 h 37° C., HRP/2 mM H2O2)	color of sample ([2]; Example 3, all OD600 values, 10 mM 4-HHA 1 h 37° C., HRP, 10 mM glucose, 1 U/mL GOD)	color of sample ([2]; Example 4 method a), OD600 0.2, 10 mM 4-HHA 1 h 37° C., HRP/2 mM H2O2)	color of sample ([2]; Example 5, all OD600 values, 10 mM 4-HHA 1 h 37° C., 2 mM 4-AAP, 2 mM NaIO4)	time to plateau of absorbance at 505 nm ([3]; Example 1, FIG. 2A, OD600 0.9)	color of sample [3, 6]	time to plateau of absorbance at 505 nm ([3]; Example 2, FIG. 3, OD600 value of 0.1)	color of sample ([3]; Example 2, OD600 0.1 to 0.9, 10 mM 4-HHA 1 h 37° C., HRP/2 mM H2O2)	color of sample ([3]; Example 3, OD600 0.1 to 0.9, 10 mM 4-HHA 1 h 37° C., HRP, 10 mM glucose, 1 U/mL GOD)	color of sample ([3]; Example 4 method a), OD600 0.2, 10 mM 4-HHA 1 h 37° C., HRP/2 mM H2O2, few minutes at room temperature)	color of sample ([3]; Example 5, OD600 0.1 to 1.1, 10 mM 4-HHA 1 h 37° C., 2 mM 4-AAP, 2 mM NaIO4)	color of sample [4]	color of sample [5]
O=C(O)c1ccc(O)cc1 [p-hydroxybenzoic acid]	about 5 minutes															
O=C(O)CNC(=O)c1ccc(O)cc1 [4-HHA, p-hydroxyhippuric acid]		colorless or slightly yellowish	colorless or slightly yellowish	colorless or slightly yellowish	colorless or slightly yellowish	slightly yellowish	colorless or slightly yellowish	about 5 minutes	robust red to pink color	about 10 minutes	robust red to pink color	robust red to pink color	significant pink color	red to pink color	colorless or slightly yellowish	pink color
